Source: patent US20240109917A1 (ACTELION PHARMACEUTICALS LTD, priority 2020, published 2024)
pIC50: −log10 of the molar value.

Experiments:
[1] = target: His6-TEV-PDGFRβ (557-1016) (Homo sapiens (Human), UniProt P09619); assay: PDGFRβ HTRF Assay; type: biochemical; details: read-out: PDGFR HTRF IC50
Outline: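 Human PDGFRβ (557-1016) pre-incubated with compound for 30 min at RT in pH 7.5 HEPES/MgCl2/EGTA/Brij-35/DTT buffer. Reaction started with ATP and TK-biotin peptide, run 3 h at RT, then quenched with EDTA-containing Eu-cryptate antibody/streptavidin-XL665. HTRF 665/620 nm ratio read after 60 min; percent inhibition relative to DMSO and 10 μM imatinib controls.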

[2] = target: Tb-labeled inactive PDGFRβ (Homo sapiens (Human), UniProt P09619); assay: PDGFRβ LanthaScreen Assay; type: binding; details: read-out: PDGFR Lantha IC50
Tb-labeled inactive PDGFRβ, sequence (P09619 33-1106): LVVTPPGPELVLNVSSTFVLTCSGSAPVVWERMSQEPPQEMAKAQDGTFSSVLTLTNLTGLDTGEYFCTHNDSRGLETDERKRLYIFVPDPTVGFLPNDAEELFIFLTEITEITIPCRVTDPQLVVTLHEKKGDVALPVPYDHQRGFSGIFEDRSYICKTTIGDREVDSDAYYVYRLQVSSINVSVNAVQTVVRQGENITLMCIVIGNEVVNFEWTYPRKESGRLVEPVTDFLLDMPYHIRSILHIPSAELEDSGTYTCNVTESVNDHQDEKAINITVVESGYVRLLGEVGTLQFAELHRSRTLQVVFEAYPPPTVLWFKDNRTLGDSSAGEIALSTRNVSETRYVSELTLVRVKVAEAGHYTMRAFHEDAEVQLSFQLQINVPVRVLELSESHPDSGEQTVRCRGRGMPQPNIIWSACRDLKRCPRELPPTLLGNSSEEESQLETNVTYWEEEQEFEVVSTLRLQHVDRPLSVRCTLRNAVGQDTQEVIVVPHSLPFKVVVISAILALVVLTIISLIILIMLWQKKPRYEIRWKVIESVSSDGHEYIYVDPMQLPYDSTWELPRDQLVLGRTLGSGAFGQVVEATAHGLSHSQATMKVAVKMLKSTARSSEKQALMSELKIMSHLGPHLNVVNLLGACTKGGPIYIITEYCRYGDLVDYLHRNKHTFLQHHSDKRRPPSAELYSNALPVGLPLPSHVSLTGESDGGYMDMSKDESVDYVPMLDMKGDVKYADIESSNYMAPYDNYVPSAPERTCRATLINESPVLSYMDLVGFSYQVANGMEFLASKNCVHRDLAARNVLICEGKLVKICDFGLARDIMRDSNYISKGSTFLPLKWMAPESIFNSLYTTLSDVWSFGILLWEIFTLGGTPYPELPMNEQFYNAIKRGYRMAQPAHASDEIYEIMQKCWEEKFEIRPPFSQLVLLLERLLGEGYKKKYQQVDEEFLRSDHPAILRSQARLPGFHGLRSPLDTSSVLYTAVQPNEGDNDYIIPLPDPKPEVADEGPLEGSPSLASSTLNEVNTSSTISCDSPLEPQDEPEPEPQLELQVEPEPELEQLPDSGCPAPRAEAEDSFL

PDGFRβ = PDGFRβ (Rattus norvegicus (Rat), UniProt Q05030); assay: PDGFRβ Cellular Assay (PDGFRb P-Y751 HTRF in A10 cells stimulated with PDGF-BB); type: cell-based; details: read-out: PDGFR Cellular IC50
PDGFRβ, sequence (Q05030 32-1097): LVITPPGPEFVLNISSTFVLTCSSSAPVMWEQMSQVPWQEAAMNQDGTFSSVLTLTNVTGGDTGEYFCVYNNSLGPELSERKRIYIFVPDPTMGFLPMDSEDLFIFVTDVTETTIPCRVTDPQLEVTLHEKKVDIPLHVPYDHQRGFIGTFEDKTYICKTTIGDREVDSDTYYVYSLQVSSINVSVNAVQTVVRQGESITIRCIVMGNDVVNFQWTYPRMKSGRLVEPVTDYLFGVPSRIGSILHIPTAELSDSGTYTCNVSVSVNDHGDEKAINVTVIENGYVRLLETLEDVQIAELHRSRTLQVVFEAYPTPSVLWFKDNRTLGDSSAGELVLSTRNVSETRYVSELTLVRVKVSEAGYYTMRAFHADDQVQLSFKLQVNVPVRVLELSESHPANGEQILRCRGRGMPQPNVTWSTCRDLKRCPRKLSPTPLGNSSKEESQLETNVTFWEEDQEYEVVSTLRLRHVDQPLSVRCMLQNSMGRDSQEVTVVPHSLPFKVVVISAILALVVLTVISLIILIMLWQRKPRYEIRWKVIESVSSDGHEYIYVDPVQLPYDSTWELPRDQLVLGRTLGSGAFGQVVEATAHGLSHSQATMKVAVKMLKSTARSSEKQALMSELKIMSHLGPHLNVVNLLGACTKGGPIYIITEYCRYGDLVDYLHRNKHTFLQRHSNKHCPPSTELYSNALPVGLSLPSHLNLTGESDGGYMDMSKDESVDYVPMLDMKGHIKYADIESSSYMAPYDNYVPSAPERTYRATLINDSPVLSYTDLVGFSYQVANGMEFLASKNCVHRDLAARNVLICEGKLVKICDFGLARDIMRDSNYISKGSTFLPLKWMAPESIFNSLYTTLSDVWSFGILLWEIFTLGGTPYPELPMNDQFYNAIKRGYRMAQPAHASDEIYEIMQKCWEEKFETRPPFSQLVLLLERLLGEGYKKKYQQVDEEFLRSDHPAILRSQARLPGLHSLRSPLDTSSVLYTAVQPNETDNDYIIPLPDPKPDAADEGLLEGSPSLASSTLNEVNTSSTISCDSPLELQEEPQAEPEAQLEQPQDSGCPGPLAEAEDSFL
Outline: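 Rat A10 cells, plated overnight, were treated with compound for 3 hours, then stimulated with PDGF-BB (working stock 100 ng/mL in 10% FBS medium). After lysis, PDGFRβ P-Y751 was detected by HTRF.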

His6-TEV-PDGFRβ (557-1016), sequence (P09619 557-1016): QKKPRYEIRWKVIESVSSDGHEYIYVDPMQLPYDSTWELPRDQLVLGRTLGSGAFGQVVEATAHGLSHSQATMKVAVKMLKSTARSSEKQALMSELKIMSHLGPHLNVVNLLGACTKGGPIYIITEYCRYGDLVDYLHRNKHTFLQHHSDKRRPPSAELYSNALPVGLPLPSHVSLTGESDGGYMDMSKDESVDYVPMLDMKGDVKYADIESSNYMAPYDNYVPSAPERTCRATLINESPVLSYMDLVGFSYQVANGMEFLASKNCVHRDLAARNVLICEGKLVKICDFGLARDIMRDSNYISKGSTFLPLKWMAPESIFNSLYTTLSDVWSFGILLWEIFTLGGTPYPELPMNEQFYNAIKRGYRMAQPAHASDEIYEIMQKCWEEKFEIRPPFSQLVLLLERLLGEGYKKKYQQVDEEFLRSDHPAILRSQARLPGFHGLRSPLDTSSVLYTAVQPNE

Compound	pIC50 [1]	pIC50 [2]	pIC50 (PDGFRβ)
Cc1ncc(NC(=O)CN2CC(C)C2)cc1NC(=O)c1cnn2cc(-c3cnn4c3OCCC4)sc12 [Example 407, 2-(6,7-dihydro-5H-pyrazolo[5,1-b][1,3]oxazin-3-yl)-N-(2-methyl-5-(2-(3-methylazetidin-1-yl)acetamido)pyridin-3-yl)pyrazolo[5,1-b]thiazole-7-carboxamide]	9.52	8.21	7.92
Cc1cnn(C)c1-c1cn2ncc(C(=O)Nc3cc(NC(=O)CN4CC(C)(C)C4)cnc3C)c2s1 [Example 389, 2-(1,4-dimethyl-1H-pyrazol-5-yl)-N-(5-(2-(3,3-dimethylazetidin-1-yl)acetamido)-2-methylpyridin-3-yl)pyrazolo[5,1-b]thiazole-7-carboxamide]	9.22	8.12	8.51
Cc1ncc(NC(=O)CN2CC(C)(C)C2)cc1NC(=O)c1cnn2cc(-c3cccnc3C)sc12 [Example 390, N-(5-(2-(3,3-dimethylazetidin-1-yl)acetamido)-2-methylpyridin-3-yl)-2-(2-methylpyridin-3-yl)pyrazolo[5,1-b]thiazole-7-carboxamide]	9.22	8.00	8.26
Cc1ncc(NC(=O)C2CN(C(C)C)C2)cc1NC(=O)c1cnn2cc(-c3cnn(C)c3C)sc12 [Example 357, 2-(1,5-dimethyl-1H-pyrazol-4-yl)-N-(5-(1-isopropylazetidine-3-carboxamido)-2-methylpyridin-3-yl)pyrazolo[5,1-b]thiazole-7-carboxamide]	9.70	8.35	7.24
COCCn1cc(-c2cn3ncc(C(=O)Nc4cc(NC(=O)CN5CCCCC5)cnc4C)c3s2)cn1 [Example 338, 2-(1-(2-methoxyethyl)-1H-pyrazol-4-yl)-N-(2-methyl-5-(2-(piperidin-1-yl)acetamido)pyridin-3-yl)pyrazolo[5,1-b]thiazole-7-carboxamide]	9.40	8.32	8.34
Cc1ncc(NC(=O)CN2CCC[C@@H]2C)cc1NC(=O)c1cnn2cc(-c3ccnc(N4CCOCC4)c3)sc12 [Example 352, (S)—N-(2-methyl-5-(2-(2-methylpyrrolidin-1-yl)acetamido)pyridin-3-yl)-2-(2-morpholinopyridin-4-yl)pyrazolo[5,1-b]thiazole-7-carboxamide]	9.52	8.33	8.55
COCCn1cc(-c2cn3ncc(C(=O)Nc4cc(NC(=O)CN5CC6CCC5CC6)cnc4C)c3s2)cn1 [Example 331, N-(5-(2-(2-azabicyclo[2.2.2]octan-2-yl)acetamido)-2-methylpyridin-3-yl)-2-(1-(2-methoxyethyl)-1H-pyrazol-4-yl)pyrazolo[5,1-b]thiazole-7-carboxamide]	9.40	8.48	8.57
Cc1ncc(NC(=O)CN2CCC3(CCC3)C2)cc1NC(=O)c1cnn2cc(-c3cnn(CCO)c3)sc12 [Example 30, N-(5-(2-(6-azaspiro[3.4]octan-6-yl)acetamido)-2-methylpyridin-3-yl)-2-(1-(2-hydroxyethyl)-1H-pyrazol-4-yl)pyrazolo[5,1-b]thiazole-7-carboxamide]	9.30	8.48	7.78
Cc1ncc(NC(=O)CN2C[C@H](C)O[C@@H](C)C2)cc1NC(=O)c1cnn2cc(-c3cnn(C4CC4)c3)sc12 (relative stereo) [Example 382, 2-(1-cyclopropyl-1H-pyrazol-4-yl)-N-(5-(2-(trans-2,6-dimethylmorpholino)acetamido)-2-methylpyridin-3-yl)pyrazolo[5,1-b]thiazole-7-carboxamide]	9.22	8.28	8.12
COCCn1cc(-c2cn3ncc(C(=O)Nc4cc(NC(=O)C5CN(C(C)C)C5)cnc4C)c3s2)cn1 [Example 342, N-(5-(1-isopropylazetidine-3-carboxamido)-2-methylpyridin-3-yl)-2-(1-(2-methoxyethyl)-1H-pyrazol-4-yl)pyrazolo[5,1-b]thiazole-7-carboxamide]	9.22	7.80	6.47
COCCn1cc(-c2cn3ncc(C(=O)Nc4cc(NC(=O)C5CCN(C(C)C)C5)cnc4C)c3s2)cn1 (stereo not drawn) [Example 345, N-(5-(1-isopropylpyrrolidine-3-carboxamido)-2-methylpyridin-3-yl)-2-(1-(2-methoxyethyl)-1H-pyrazol-4-yl)pyrazolo[5,1-b]thiazole-7-carboxamide]	8.89	7.24	6.65
COCCn1cc(-c2cn3ncc(C(=O)Nc4cc(NC(=O)CN5CCC56CCC6)cnc4C)c3s2)cn1 [Example 333, N-(5-(2-(1-azaspiro[3.3]heptan-1-yl)acetamido)-2-methylpyridin-3-yl)-2-(1-(2-methoxyethyl)-1H-pyrazol-4-yl)pyrazolo[5,1-b]thiazole-7-carboxamide]	9.40	8.51	8.48
CCn1nccc1-c1cn2ncc(C(=O)Nc3cc(NC(=O)CN4CC(C)(C)C4)cnc3C)c2s1 [Example 388, N-(5-(2-(3,3-dimethylazetidin-1-yl)acetamido)-2-methylpyridin-3-yl)-2-(1-ethyl-1H-pyrazol-5-yl)pyrazolo[5,1-b]thiazole-7-carboxamide]	9.30	8.13	8.29
Cc1ncc(NC(=O)CN2CCC[C@H]2C)cc1NC(=O)c1cnn2cc(-c3cnn(C)c3)sc12 [Example 26, (R)-2-(1-methyl-1H-pyrazol-4-yl)-N-(2-methyl-5-(2-(2-methyl-pyrrolidin-1-yl)acetamido)pyridin-3-yl)pyrazolo[5,1-b]thiazole-7-carboxamide]	9.10	7.93	8.23
COCCn1cc(-c2cn3ncc(C(=O)Nc4cc(NC(=O)CN5C6CCC5CC6)cnc4C)c3s2)cn1 [Example 340, N-(5-(2-(7-azabicyclo[2.2.1]heptan-7-yl)acetamido)-2-methylpyridin-3-yl)-2-(1-(2-methoxyethyl)-1H-pyrazol-4-yl)pyrazolo[5,1-b]thiazole-7-carboxamide]	9.30	8.12	8.19
Cc1ncc(NC(=O)CN2CCC3(CC2)CC3)cc1NC(=O)c1cnn2cc(-c3cnn(CCO)c3)sc12 [Example 31, N-(5-(2-(6-azaspiro[2.5]octan-6-yl)acetamido)-2-methylpyridin-3-yl)-2-(1-(2-hydroxyethyl)-1H-pyrazol-4-yl)pyrazolo[5,1-b]thiazole-7-carboxamide]	9.22	8.29	7.95
Cc1ncc(NC(=O)CN2CC3(CCOCC3)C2)cc1NC(=O)c1cnn2cc(-c3cnn4c3OCCC4)sc12 [Example 406, N-(5-(2-(7-oxa-2-azaspiro[3.5]nonan-2-yl)acetamido)-2-methylpyridin-3-yl)-2-(6,7-dihydro-5H-pyrazolo[5,1-b][1,3]oxazin-3-yl)pyrazolo[5,1-b]thiazole-7-carboxamide]	9.40	8.64	7.72
Cc1ncc(NC(=O)CN2C[C@H](CO)OC(C)(C)C2)cc1NC(=O)c1cnn2cc(-c3cnn(C)c3)sc12 [Example 376, (R)—N-(5-(2-(6-(hydroxymethyl)-2,2-dimethylmorpholino)acetamido)-2-methylpyridin-3-yl)-2-(1-methyl-1H-pyrazol-4-yl)pyrazolo[5,1-b]thiazole-7-carboxamide]	9.10	8.25	6.81
